Like-named read-outs stand apart in the source and are kept apart here.
Key:
[1] = molecular target: T1, α1β1 GABAA receptors (Rattus norvegicus, UniProt P15431+P62813); test: Two electrode voltage clamp in Xenopus laevis oocytes, α1β1; type: cell-based; details: for activity at 0.03 µM: 30 nM; for activity at 0.3 µM: 300 nM; for EC50: read-out: EC50
T1 construct: expressed in transfected cells; host or cells: Xenopus laevis oocytes, mRNA injected
Source text: (§1) cDNA’s of rat GABAA receptor subunits α1, α4, β1, β2, β3 and γ2S were cloned as described. cDNAs of the rat subunits α2, α3 and α5 were gifts from P. Malherbe, that of α6 and γ1 were gifts of P. Seeburg and that of δ was a gift of C. Czajkowski. The mutants were constructed using the Q5 Site-Directed Mutagenesis Kit (New England Biolabs) following manufacturer’s instruction. We used the wild-type rat β3-pCI vector as template and the primers […] and […] resulting in a substitution of amino acid N41 (AAC) to R (AGG). We used the wild-type rat β1-pCI vector as template and the primers […] and […] resulting in a substitution of amino acid R41 (CGG) to N (AAC). The mutated subunits were confirmed by sequencing.
(§2) In vitro transcription of mRNA was based on the cDNA expression vectors encoding for rat GABAA receptor subunits α1–6, β1-3, γ1,2, δ and the two β mutants (β1R41N and β3N41R)[40]. After linearizing the cDNA vectors with appropriate restriction endonucleases, the cDNA was purified and concentrated with the DNA Clean and Contentrator ^TM Kit (Zymoresearch, Catalog No. D4005). Capped transcripts of the purified cDNA were produced using the mMESSAGE mMACHINE® T7 transcription kit (Ambion, TX, USA) and polyadenylated using the Ambion PolyA tailing kit (Ambion). After transcription and polyadenylation the RNA was purified with the MEGAclear ^TM Kit (Ambion, Catalog No. AM1908). The final RNA concentration was measured on NanoDrop® ND-1000 and finally diluted and stored in diethylpyrocarbonate-treated water at −80 °C. For the microinjection, the RNA of αβ receptor combinations was mixed at 1:1 ratio (which leads to αβ receptors that consist of predominantly 3 beta and 2 alpha subunits[27]), for αkβlγm (k = 1–3, l = 1, 3, m = 1, 2) receptors at 1:1:5 ratio, for αkβ3γ2 (k = 4–6) and αkβlδ (k = 1, 4 and 6, l = 1, 3) receptor combinations at 3:1:5 ratio.
(§3) Mature female Xenopus laevis (Nasco, WI) were anesthetized in a bath of ice-cold 0.17% Tricain (Ethyl-m-aminobenzoate, Sigma, MO) before decapitation in full accordance with all rules of the Austrian animal protection law (see http://www.ris.bka.gv.at/Dokumente/BgblAuth/BGBLA_2012_I_114/BGBLA_2012_I_114.pdf) and the Austrian animal experiment by-laws (see https://www.ris.bka.gv.at/Dokumente/BgblAuth/BGBLA_2012_II_522/BGBLA_2012_II_522.pdf) which implement the European Directive 2010/63/EU (see http://eur-lex.europa.eu/LexUriServ/LexUriServ.do?uri=OJ:L:2010:276:0033:0079:en:PDF) into the Austrian law (all information accessed on July 27, 2016). The frog’s ovaries were transferred to ND96 medium (96 mM NaCl, 2 mM KCl, 1 mM MgCl2, 5 mM HEPES; pH 7.5). Stage 5–6 oocytes with the follicle cell layer around them were roughly dissected with forceps into packages of 10–15 cells and washed in Ca^2+-free ND96 medium. Cells were then digested with collagenase (type IA, Sigma, NO, 1 mg/mL ND96) at 18 °C shaking at 30 rpm for 30–60 minutes and gently defolliculated with the aid of a glass pipette with appropriate tip diameter and a platinum loop. Defolliculated cells were stored at 18 °C for at least 6 hours in ND96 solution containing penicillin G (10000 IU/100 mL) and streptomycin (10 mg/100 mL) in order to preselect and exclude damaged cells from further treatment. Healthy defolliculated oocytes were injected with an aqueous solution of mRNA. A total of 4.5 ng of mRNA per oocyte was injected with a Nanoject II (Drummond). After injection of mRNA, oocytes were incubated at 18 °C (ND96 + antibiotic) for 2–3 days for αβ receptors and for 3–4 days for αβγ or αβδ receptors before recording. When cells were measured at later time points, oocytes were stored at +4 °C instead of 18 °C.
(§4) For electrophysiological recordings, oocytes were placed on a nylon-grid in a bath of Ca^2+-containing NDE solution medium [96 mM NaCl, 5 mM HEPES-NaOH (pH 7.5), 2 mM KCl, 1 mM MgCl2, 1.8 mM CaCl2].

[2] = molecular target: T2, α1β2 GABAA receptors (Rattus norvegicus, UniProt P62813+P63138); test: Two electrode voltage clamp in Xenopus laevis oocytes, α1β2; type: cell-based; details: for activity at 0.03 µM: 30 nM; for activity at 0.003 µM: 3 nM
T2 construct: expressed in transfected cells; host or cells: Xenopus laevis oocytes, mRNA injected
Source text: as §1, §2, §3, §4

[3] = molecular target: T3, α1β3 GABAA receptors (Rattus norvegicus, UniProt P62813+P63079); test: Two electrode voltage clamp in Xenopus laevis oocytes, α1β3; type: cell-based; details: for activity at 0.1 µM: 100 nM
T3 construct: expressed in transfected cells; host or cells: Xenopus laevis oocytes, mRNA injected
Source text: as §1, §2, §3, §4

[4] = molecular target: T4, α1β1R41N GABAA receptors (Rattus norvegicus, UniProt P15431+P62813, R66N); test: Two electrode voltage clamp in Xenopus laevis oocytes, mutant α1β1R41N; type: cell-based; details: for current as % of control at 0.1 µM: 100nM; for current as % of control at 0.1 µM / current as % of control at 0.3 µM / current as % of control at 1 µM / current as % of control at 3 µM / current as % of control at 10 µM / current as % of control at 30 µM: read-out: % of control current at EC3-5; for current as % of control at 0.3 µM: 300nM
T4 construct: expressed in transfected cells; host or cells: Xenopus laevis oocytes, mRNA injected
Source text: as §1, §2, §3, §4

[5] = molecular target: T5, α1β3N41R GABAA receptors (Rattus norvegicus, UniProt P62813+P63079, N66R); test: Two electrode voltage clamp in Xenopus laevis oocytes, mutant α1β3N41R; type: cell-based; details: co-applied with GABA EC3-5, read-out: EC50 values for the mutated receptors
T5 construct: expressed in transfected cells; host or cells: Xenopus laevis oocytes, mRNA injected
Source text: as §1, §2, §3, §4

[6] = tested on: γ2 subunit containing GABAA receptors; test: Control of γ2 subunit incorporation with diazepam; type: cell-based, rat; details: 1 µM
Experimental: For electrophysiological recordings, oocytes were placed on a nylon-grid in a bath of Ca^2+-containing NDE solution medium [96 mM NaCl, 5 mM HEPES-NaOH (pH 7.5), 2 mM KCl, 1 mM MgCl2, 1.8 mM CaCl2]. For current measurements the oocytes were impaled with two microelectrodes (1–3 MΩ resistance) filled with 2 M KCl. […] The EC3–5 was determined at the beginning of each experiment. Drugs were diluted into NDE from DMSO-solutions resulting in a final concentration of 0.1% DMSO perfusing the oocytes. […] Between two applications, oocytes were washed in NDE for up to 15 min to ensure full recovery from desensitization. […] All recordings were performed at room temperature at a holding potential of […] using a Dagan TEV-200A two-electrode voltage clamp (Dagan Corporation, Mineapolis, MN). Data were digitized, recorded and measured using an Axon Digidata- 1550 low-noise data acquisition system (Axon Instruments, Union City, CA).

[7] = read-out: efficacy, % of control current (GABA EC3-5 = 100%), α1β1
[8] = α1β1, co-applied with GABA EC3-5
[9] = read-out: efficacy, % of control current (GABA EC3-5 = 100%), α1β2
[10] = read-out: efficacy, % of control current (GABA EC3-5 = 100%), α1β3
[11] = α1β3, co-applied with GABA EC3-5, read-out: EC50

T5 sequence (P62813 28-455): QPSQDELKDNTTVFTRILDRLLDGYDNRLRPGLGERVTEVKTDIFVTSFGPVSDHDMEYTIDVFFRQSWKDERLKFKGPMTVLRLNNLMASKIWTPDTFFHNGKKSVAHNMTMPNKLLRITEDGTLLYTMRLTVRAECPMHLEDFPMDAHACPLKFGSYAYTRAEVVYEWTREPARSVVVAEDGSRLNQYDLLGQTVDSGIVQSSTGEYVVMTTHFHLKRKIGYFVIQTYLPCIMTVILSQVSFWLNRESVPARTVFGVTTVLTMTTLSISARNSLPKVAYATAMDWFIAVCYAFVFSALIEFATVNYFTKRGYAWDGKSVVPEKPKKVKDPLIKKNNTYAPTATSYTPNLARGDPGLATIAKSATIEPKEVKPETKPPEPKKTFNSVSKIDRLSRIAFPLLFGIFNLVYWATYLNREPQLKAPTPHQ
T5 sequence (P63079 26-473 N66R): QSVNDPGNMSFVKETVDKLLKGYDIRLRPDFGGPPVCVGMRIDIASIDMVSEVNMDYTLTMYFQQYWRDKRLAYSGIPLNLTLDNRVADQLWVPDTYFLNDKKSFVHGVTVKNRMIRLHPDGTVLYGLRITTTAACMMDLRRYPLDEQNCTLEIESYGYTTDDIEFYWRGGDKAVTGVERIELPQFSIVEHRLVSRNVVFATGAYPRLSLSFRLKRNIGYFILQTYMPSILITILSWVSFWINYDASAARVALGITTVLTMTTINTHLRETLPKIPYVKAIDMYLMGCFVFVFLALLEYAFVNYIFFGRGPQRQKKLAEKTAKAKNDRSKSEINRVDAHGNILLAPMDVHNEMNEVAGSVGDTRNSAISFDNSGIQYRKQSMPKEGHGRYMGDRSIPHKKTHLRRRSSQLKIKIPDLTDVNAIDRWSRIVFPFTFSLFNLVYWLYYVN
T4 sequence (P62813 28-455): as the sequence (P62813 28-455) above
T4 sequence (P15431 26-474 R66N): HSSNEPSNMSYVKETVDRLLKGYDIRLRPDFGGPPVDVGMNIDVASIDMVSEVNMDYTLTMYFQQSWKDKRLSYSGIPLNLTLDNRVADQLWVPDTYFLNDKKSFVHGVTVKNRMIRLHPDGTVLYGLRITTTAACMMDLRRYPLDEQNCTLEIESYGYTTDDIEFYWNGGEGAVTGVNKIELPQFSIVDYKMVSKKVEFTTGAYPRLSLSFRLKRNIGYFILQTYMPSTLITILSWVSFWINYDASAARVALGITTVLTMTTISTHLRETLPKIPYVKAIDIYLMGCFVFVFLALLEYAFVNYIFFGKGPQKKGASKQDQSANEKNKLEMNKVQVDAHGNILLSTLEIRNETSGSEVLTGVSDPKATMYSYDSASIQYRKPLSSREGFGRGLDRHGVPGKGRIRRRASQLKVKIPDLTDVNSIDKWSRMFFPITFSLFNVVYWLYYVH
T2 sequence (P62813 28-455): as the sequence (P62813 28-455) above
T2 sequence (P63138 25-474 limits assumed): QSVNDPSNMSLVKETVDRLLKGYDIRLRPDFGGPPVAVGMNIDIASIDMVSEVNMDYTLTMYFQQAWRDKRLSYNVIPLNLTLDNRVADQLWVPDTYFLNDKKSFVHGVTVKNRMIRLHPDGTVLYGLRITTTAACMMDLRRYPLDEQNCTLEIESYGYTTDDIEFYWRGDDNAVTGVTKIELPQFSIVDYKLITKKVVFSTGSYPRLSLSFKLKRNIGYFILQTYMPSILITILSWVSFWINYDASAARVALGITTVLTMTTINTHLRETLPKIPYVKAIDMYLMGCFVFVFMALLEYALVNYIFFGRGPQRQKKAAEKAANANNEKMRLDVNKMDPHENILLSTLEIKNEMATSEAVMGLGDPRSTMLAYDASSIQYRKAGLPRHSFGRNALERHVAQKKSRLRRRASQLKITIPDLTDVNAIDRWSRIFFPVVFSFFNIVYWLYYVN
T3 sequence (P62813 28-455): as the sequence (P62813 28-455) above
T3 sequence (P63079 26-473): as the sequence (P63079 26-473 N66R) above, with R41N counted along it
T1 sequence (P62813 28-455): as the sequence (P62813 28-455) above
T1 sequence (P15431 26-474): as the sequence (P15431 26-474 R66N) above, with N41R counted along it

| Structure (SMILES) | activity at 0.03 µM [1, 7] | activity at 0.3 µM [1, 7] | Hill slope (nH) ([1]; α1β1) | EC50 [1, 8] | activity at 0.03 µM [2, 9] | activity at 1 µM [2, 9] | activity at 30 µM [2, 9] | activity at 0.1 µM [3, 10] | activity at 1 µM [3, 10] | current as % of control at 0.1 µM [4] | current as % of control at 0.3 µM [4] | current as % of control at 1 µM [4] | current as % of control at 3 µM [4] | current as % of control at 10 µM [4] | current as % of control at 30 µM [4] | EC50 [5] | activity at 30 µM [1, 7] | EC50 [2] | activity at 0.003 µM [2, 9] | Hill slope (nH) ([2]; α1β2) | further results |
| --- | --- | --- | --- | --- | --- | --- | --- | --- | --- | --- | --- | --- | --- | --- | --- | --- | --- | --- | --- | --- | --- |
| COc1ccc2[nH]cc3c(=O)n(-c4ccc(N)cc4)nc-3c2c1 [Compound 6, 2-(4-Aminophenyl)-8-methoxy-2,5-dihydro-3H-pyrazolo[4,3-c]quinolin-3-one] | 100% | 153 ± 9.5% | 1.3±0.2 | 0.65 µM | 98 ± 3% | 97.5 ± 9.5% | 105 ± 8.3% | 95 ± 5% | 97.5 ± 0.5% | 75 ± 1% | 90 ± 10% | 90 ± 15% | 90 ± 20% | 70 ± 10% | 115 ± 1% | 1.87 µM | – | – | – | – | activity at 0.1 µM ([2]; read-out: efficacy, % of control current (GABA EC3-5 = 100%), α1β2, 100 nM): 99.5 ± 5.5%; activity at 10 µM ([2]; read-out: efficacy, % of control current (GABA EC3-5 = 100%), α1β2, 10 µM): 118 ± 9%; activity at 0.003 µM ([3]; read-out: efficacy, % of control current (GABA EC3-5 = 100%), α1β3, 3 nM): 100 ± 1.9% |
| CN1C(=O)CN=C(c2ccccc2)c2cc(Cl)ccc21 [diazepam, Diazepam] | – | – | – | – | – | – | – | – | – | – | – | – | – | – | – | – | – | – | – | – | modulation [6]: ~ 200% |
| COc1ccc(-n2nc3c4cc(OC)ccc4[nH]cc-3c2=O)cc1 [Compound 4, 8-Methoxy-2-(4-methoxyphenyl)-2,5-dihydro-3H-pyrazolo[4,3-c]quinolin-3-one] | 127 ± 1% | 397 ± 54.9% | 1.8±0.4 | 0.21 µM | 100% | – | – | – | 242 ± 16% | 80 ± 10% | 85 ± 12% | 110 ± 20% | 150 ± 25% | 180 ± 45% | 140 ± 15% | 1.2 µM | 218 ± 11% | 2.62 µM | 100% | 1.3±0.5 | activity at 0.001 µM ([1]; read-out: efficacy, % of control current (GABA EC3-5 = 100%), α1β1, 1 nM): 100%; activity at 0.003 µM ([1]; read-out: efficacy, % of control current (GABA EC3-5 = 100%), α1β1, 3 nM): 100%; EC50 ([1]; α1β1 (α1+/β1− interface)): ~0.2 µM; activity at 0.3 µM ([2]; read-out: efficacy, % of control current (GABA EC3-5 = 100%), α1β2, 300 nM): 166 ± 7.9%; activity at 3 µM ([2]; read-out: efficacy, % of control current (GABA EC3-5 = 100%), α1β2, 3 µM): 689 ± 82.9%; activity at 0.3 µM ([3]; read-out: efficacy, % of control current (GABA EC3-5 = 100%), α1β3, 300 nM): 149 ± 15.8%; activity at 3 µM ([3]; read-out: efficacy, % of control current (GABA EC3-5 = 100%), α1β3, 3 µM): 654 ± 109%; Hill slope (nH) ([3]; α1β3): 1.9±0.5; EC50 [3, 11]: 3.13 µM; EC50 ([3]; α1β3, log of EC50, sign as printed, read-out: LogEC50 (converted)): 3.09 µM; EC50 ([4]; co-applied with GABA EC3-5): 1.2 µM |
| COc1ccc2[nH]cc3c(=O)n(-c4ccc(C)cc4)nc-3c2c1 [Compound 5, 8-Methoxy-2-(4-methylphenyl)-2,5-dihydro-3H-pyrazolo[4,3-c]quinolin-3-one] | – | – | 1.0± 0.5 | 0.71 µM | – | 179 ± 8.3% | 651 ± 148% | 126 ± 11.5% | – | 95 ± 20% | 85 ± 25% | 100 ± 30% | 120 ± 30% | 155 ± 40% | 160 ± 40% | 2.47 µM | 637 ± 114% | 3.74 µM | 100% | 2.8±1.7 | activity at 0.01 µM ([1]; read-out: efficacy, % of control current (GABA EC3-5 = 100%), α1β1, 10 nM): 123%; activity at 10 µM ([1]; read-out: efficacy, % of control current (GABA EC3-5 = 100%), α1β1, 10 µM): 732 ± 141%; activity at 0.01 µM ([3]; read-out: efficacy, % of control current (GABA EC3-5 = 100%), α1β3, 10 nM): 111 ± 5.7%; activity at 0.03 µM ([3]; read-out: efficacy, % of control current (GABA EC3-5 = 100%), α1β3, 30 nM): 115 ± 8.1%; activity at 30 µM ([3]; read-out: efficacy, % of control current (GABA EC3-5 = 100%), α1β3, 30 µM): 623 ± 114%; EC50 [3, 11]: 3.49 µM |

Reference: PMC5516028, “Molecular tools for GABAA receptors: High affinity ligands for β1-containing subtypes” (Scientific Reports, 2017)
